# According to patent publication US10294202B2, “Pyrrolidinones as herbicides” (FMC Corporation, priority 2013, dated 2019):
# Assays:
# nightshade = test: Test C pre-/postemergence herbicide test; assay type: in vivo, Solanum ptycanthum; details: Preemergence
# Excerpt: (§1) Seeds of plant species selected from blackgrass (Alopecurus myosuroides), ryegrass, Italian (Italian ryegrass, Lolium multiflorum), wheat (winter wheat, Triticum aestivum), galium (catchweed bedstraw, Galium aparine), corn (Zea mays), crabgrass, large (large crabgrass, Digitaria sanguinalis), foxtail, giant (giant foxtail, Setaria faberii), johnsongrass (Sorghum halepense), lambsquarters (Chenopodium album), morningglory (Ipomoea coccinea), nutsedge, yellow (yellow nutsedge, Cyperus esculentus), pigweed (Amaranthus retroflexus), ragweed (common ragweed, Ambrosia elatior), soybean (Glycine max), barnyardgrass (Echinochloa crus-galli), oilseed rape (Brassica napus), waterhemp (common waterhemp, Amaranthus rudis), kochia (Kochia scoparia), oat, wild (wild oat, Avena fatua), surinam grass (Brachiaria decumbens), foxtail, green (green foxtail, Setaria viridis), goosegrass (Eleusine indica), bromegrass, downy (downy bromegrass, Bromus tectorum), nightshade (eastern black nightshade, Solanum ptycanthum), cocklebur (common cocklebur, Xanthium strumarium), cupgrass, woolly (woolly cupgrass, Eriochloa villosa), bermudagrass (Cynodon dactylon), sunflower, (common oilseed sunflower, Helianthus annuus), Russian thistle (Salsola kali) and velvetleaf (Abutilon theophrasti) were planted into a blend of loam soil and sand and treated preemergence with test chemicals formulated in a non-phytotoxic solvent mixture which included a surfactant. At the same time, plants selected from these crop and weed species and also barley (winter barley, Hordeum vulgare), […]), chickweed (common chickweed, Stellaria media), deadnettle (henbit deadnettle, Lamium amplexicaule), and canarygrass (littleseed canarygrass, Phalaris minor) were planted in pots containing Redi-Earth® planting medium (Scotts Company, 14111 Scottslawn Road, Marysville, Ohio 43041) comprising spaghnum peat moss, vermiculite, wetting agent and starter nutrients and treated with postemergence applications of test chemicals formulated in the same manner. Plants ranged in height from 2 to 18 cm (1- to 4-leaf stage) for postemergence treatments. Treated plants and controls were maintained in a greenhouse for 13 to 15 days, after which time all species were compared to controls and visually evaluated. Plant response ratings, summarized in Table C, are based on a scale of 0 to 100 where 0 is no effect and 100 is complete control. A dash (-) response means no test result.
# foxtail, green = test: Test C pre-/postemergence herbicide test; assay type: in vivo, Setaria viridis
# In short: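 Pre-emergence: seeds sown in loam/sand blend and treated with compound in surfactant-containing solvent. Post-emergence: plants at 2–18 cm (1- to 4-leaf stage) in peat-based medium sprayed with the same formulation. Visual rating versus controls after 13–15 days in greenhouse, scale 0 (no effect) to 100 (complete control).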
# canarygrass = test: Test D pre-/postemergence herbicide test; assay type: in vivo, Phalaris minor; details: for Plant response rating: Canarygrass, scale 0 to 100; for Plant response rating, Canarygrass: scale 0 to 100 (0 no effect, 100 complete control)
# In short: (§2)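 Seeds sown in silt loam were sprayed preemergence with test chemicals in a non-phytotoxic solvent mixture with surfactant. Postemergence plants grown in peat/vermiculite medium were treated at 2–18 cm (1- to 4-leaf stage). After 7 to 21 days in a controlled environment, injury was rated visually versus controls, 0 (no effect) to 100 (complete control).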
# ryegrass, Italian = test: Test D pre-/postemergence herbicide test; assay type: in vivo, Lolium multiflorum; details: for Plant response rating: Postemergence, Ryegrass, Italian, scale 0 to 100; for Plant response rating, Ryegrass, Italian: Preemergence, scale 0 to 100 (0 no effect, 100 complete control)
# In short: as §2
# bromegrass, downy = test: Test C pre-/postemergence herbicide test; assay type: in vivo, Bromus tectorum
# Excerpt: as §1
# bermudagrass = test: Test C pre-/postemergence herbicide test; assay type: in vivo, Cynodon dactylon
# Excerpt: as §1
# radish, wild = test: Test D pre-/postemergence herbicide test; assay type: in vivo, Raphanus raphanistrum; details: for Plant response rating: Postemergence, Radish, Wild, scale 0 to 100
# In short: as §2
# [1] = 125 g ai/ha, scale 0 to 100 (0 no effect, 100 complete control)
# [2] = Postemergence, 31 g ai/ha, scale 0 (no effect) to 100 (complete control)
# [3] = Postemergence, 62 g ai/ha, scale 0 to 100 (0 no effect, 100 complete control)
# [4] = Postemergence, 125 g ai/ha, scale 0 to 100 (0 no effect, 100 complete control)
# [5] = Postemergence, 250 g ai/ha, scale 0 to 100 (0 no effect, 100 complete control)
# [6] = Preemergence, 62 g ai/ha, scale 0 to 100
# [7] = Preemergence, 125 g ai/ha, scale 0 to 100 (0 no effect, 100 complete control)
# [8] = Preemergence, 31 g ai/ha, scale 0 to 100 (0 no effect, 100 complete control)
# [9] = Preemergence, 250 g ai/ha, scale 0 to 100 (0 no effect, 100 complete control)
# [10] = Preemergence, 31 g ai/ha, scale 0 to 100, 0 is no effect and 100 is complete control
smiles,measurement,setting,value
"O=C1NCC(c2ccc(F)c(F)c2)C1C(=O)Nc1cccc(F)c1F (centres unmarked) [Compound 17, N-(2,3-difluorophenyl)-4-(3,4-difluorophenyl)-2-oxo-3-pyrrolidinecarboxamide]","Plant response rating, Nightshade","nightshade; 62 g ai/ha, scale 0 to 100",20
same,"Plant response rating, Nightshade",nightshade; [1],40
same,"Plant response rating, Foxtail, Green","foxtail, green; [2]",0
same,"Plant response rating, Foxtail, Green","foxtail, green; [3]",0
same,"Plant response rating, Foxtail, Green","foxtail, green; [4]",0
same,"Plant response rating, Foxtail, Green","foxtail, green; [5]",0
same,"Plant response rating, Foxtail, Green","foxtail, green; [6]",95
same,"Plant response rating, Foxtail, Green","foxtail, green; [7]",98
same,"Foxtail, Green plant response rating","foxtail, green; [8]",95
same,"Plant response rating, Foxtail, Green","foxtail, green; [9]",98
same,Plant response rating,"canarygrass; Postemergence, 16 g ai/ha",0
same,Plant response rating,"canarygrass; Postemergence, 31 g ai/ha",0
same,Plant response rating,"canarygrass; Postemergence, 62 g ai/ha",0
same,Plant response rating,"canarygrass; Postemergence, 125 g ai/ha",0
same,Plant response rating,"canarygrass; Postemergence, 250 g ai/ha",0
same,Plant response rating,"ryegrass, Italian; 16 g ai/ha",0
same,Plant response rating,"ryegrass, Italian; 31 g ai/ha",0
same,Plant response rating,"ryegrass, Italian; 62 g ai/ha",0
same,Plant response rating,"ryegrass, Italian; 125 g ai/ha",0
same,Plant response rating,"ryegrass, Italian; 250 g ai/ha",0
same,"Plant response rating, Bromegrass, Downy","bromegrass, downy; [2]",0
same,"Plant response rating, Bromegrass, Downy","bromegrass, downy; [3]",0
same,"Plant response rating, Bromegrass, Downy","bromegrass, downy; [4]",0
same,"Plant response rating, Bromegrass, Downy","bromegrass, downy; [5]",0
same,"Plant response rating, Bromegrass, Downy","bromegrass, downy; [6]",30
same,"Plant response rating, Bromegrass, Downy","bromegrass, downy; [7]",45
same,"Bromegrass, Downy plant response rating","bromegrass, downy; [8]",0
same,"Plant response rating, Bromegrass, Downy","bromegrass, downy; [9]",65
same,"Plant response rating, Bermudagrass",bermudagrass; [2],0
same,"Plant response rating, Bermudagrass",bermudagrass; [3],0
same,"Plant response rating, Bermudagrass",bermudagrass; [4],0
same,"Plant response rating, Bermudagrass",bermudagrass; [5],0
same,"Plant response rating, Bermudagrass",bermudagrass; [6],45
same,"Plant response rating, Bermudagrass",bermudagrass; [7],85
same,Bermudagrass plant response rating,bermudagrass; [8],0
same,"Plant response rating, Bermudagrass",bermudagrass; [9],90
same,Plant response rating,"radish, wild; 16 g ai/ha",0
same,Plant response rating,"radish, wild; 31 g ai/ha",0
same,Plant response rating,"radish, wild; 62 g ai/ha",0
same,Plant response rating,"radish, wild; 125 g ai/ha",15
same,Plant response rating,"radish, wild; 250 g ai/ha",15
O=C1NCC(c2ccc(Cl)c(F)c2)C1C(=O)Nc1cccc(F)c1F (centres unmarked) [Compound 52],"Plant response rating, Nightshade","nightshade; 62 g ai/ha, scale 0 to 100",0
same,"Plant response rating, Nightshade",nightshade; [1],0
same,"Plant response rating, Foxtail, Green","foxtail, green; [2]",0
same,"Plant response rating, Foxtail, Green","foxtail, green; [3]",10
same,"Plant response rating, Foxtail, Green","foxtail, green; [4]",30
same,"Plant response rating, Foxtail, Green","foxtail, green; [5]",80
same,"Plant response rating, Foxtail, Green","foxtail, green; [6]",90
same,"Plant response rating, Foxtail, Green","foxtail, green; [7]",90
same,"Foxtail, Green plant response rating","foxtail, green; [8]",80
same,"Plant response rating, Foxtail, Green","foxtail, green; [9]",90
same,Plant response rating,"canarygrass; Postemergence, 16 g ai/ha",0
same,Plant response rating,"canarygrass; Postemergence, 31 g ai/ha",0
same,Plant response rating,"canarygrass; Postemergence, 62 g ai/ha",0
same,Plant response rating,"canarygrass; Postemergence, 125 g ai/ha",0
same,Plant response rating,"canarygrass; Postemergence, 250 g ai/ha",0
same,"Plant response rating, Canarygrass","canarygrass; Preemergence, 62 g ai/ha",0
same,"Plant response rating, Canarygrass","canarygrass; Preemergence, 16 g ai/ha",0
same,"Plant response rating, Canarygrass","canarygrass; Preemergence, 31 g ai/ha",0
same,Plant response rating,"canarygrass; Preemergence, 125 g ai/ha",0
same,Plant response rating,"canarygrass; Preemergence, 250 g ai/ha",0
same,Plant response rating,"ryegrass, Italian; 16 g ai/ha",0
same,Plant response rating,"ryegrass, Italian; 31 g ai/ha",0
same,Plant response rating,"ryegrass, Italian; 62 g ai/ha",0
same,Plant response rating,"ryegrass, Italian; 125 g ai/ha",0
same,Plant response rating,"ryegrass, Italian; 250 g ai/ha",0
same,"Plant response rating, Ryegrass, Italian","ryegrass, Italian; 62 g ai/ha",0
same,"Plant response rating, Ryegrass, Italian","ryegrass, Italian; 125 g ai/ha",0
same,"Plant response rating, Ryegrass, Italian","ryegrass, Italian; 16 g ai/ha",40
same,"Plant response rating, Ryegrass, Italian","ryegrass, Italian; 31 g ai/ha",0
same,"Plant response rating, Ryegrass, Italian","ryegrass, Italian; 250 g ai/ha",0
same,"Plant response rating, Bromegrass, Downy","bromegrass, downy; [2]",0
same,"Plant response rating, Bromegrass, Downy","bromegrass, downy; [3]",0
same,"Plant response rating, Bromegrass, Downy","bromegrass, downy; [4]",0
same,"Plant response rating, Bromegrass, Downy","bromegrass, downy; [5]",10
same,"Plant response rating, Bromegrass, Downy","bromegrass, downy; [6]",0
same,"Plant response rating, Bromegrass, Downy","bromegrass, downy; [7]",0
same,"Bromegrass, Downy plant response rating","bromegrass, downy; [8]",0
same,"Plant response rating, Bromegrass, Downy","bromegrass, downy; [9]",0
same,"Plant response rating, Bermudagrass",bermudagrass; [2],0
same,"Plant response rating, Bermudagrass",bermudagrass; [3],0
same,"Plant response rating, Bermudagrass",bermudagrass; [4],0
same,"Plant response rating, Bermudagrass",bermudagrass; [5],10
same,"Plant response rating, Bermudagrass",bermudagrass; [6],40
same,"Plant response rating, Bermudagrass",bermudagrass; [7],40
same,Bermudagrass plant response rating,bermudagrass; [8],0
same,"Plant response rating, Bermudagrass",bermudagrass; [9],65
same,"Plant response rating, Radish, Wild","radish, wild; Preemergence, 16 g ai/ha, scale 0 to 100 (0 no effect, 100 complete control)",0
O=C1NCC(c2cccc(OC(F)(F)F)c2)C1C(=O)Nc1ccccc1F (centres unmarked) [Compound 69],Nightshade plant response rating,"nightshade; 31 g ai/ha, scale 0 to 100, 0 is no effect and 100 is complete control",0
same,"Plant response rating, Nightshade","nightshade; 62 g ai/ha, scale 0 to 100",0
same,"Plant response rating, Nightshade",nightshade; [1],0
same,"Plant response rating (scale of 0 to 100), Nightshade",nightshade; 250 g ai/ha,0
same,"Foxtail, Green plant response rating","foxtail, green; [10]",90
same,"Plant response rating, Foxtail, Green","foxtail, green; [6]",90
same,"Plant response rating, Foxtail, Green","foxtail, green; [7]",95
same,"Plant response rating (scale of 0 to 100), Foxtail, Green","foxtail, green; Preemergence, 250 g ai/ha",95
same,"Bromegrass, Downy plant response rating","bromegrass, downy; [10]",0
same,"Plant response rating, Bromegrass, Downy","bromegrass, downy; [6]",0
same,"Plant response rating, Bromegrass, Downy","bromegrass, downy; [7]",0
same,"Plant response rating (scale of 0 to 100), Bromegrass, Downy","bromegrass, downy; Preemergence, 250 g ai/ha",0
same,Bermudagrass plant response rating,bermudagrass; [10],35
same,"Plant response rating, Bermudagrass",bermudagrass; [6],35
same,"Plant response rating, Bermudagrass",bermudagrass; [7],50
same,"Plant response rating (scale of 0 to 100), Bermudagrass","bermudagrass; Preemergence, 250 g ai/ha",55
